# Tested on: adult cardiac ventricular rat myocytes
# Test: Adult ventricular myocyte contractility (fractional shortening)
# Type: cell-based
# Conditions: 5 min, 5 μM compound, 5 min perfusion, read-out: % FS (% reduction from baseline) ± SEM
# Description: Adult male Sprague-Dawley rats were anesthetized and the hearts were quickly excised, rinsed and the ascending aorta was cannulated. Continuous retrograde perfusion was initiated on the hearts at a perfusion pressure of 60 cm H2O. Hearts were first perfused with a nominally Ca^2+-free modified Krebs solution of the following composition: 113 mM NaCl, 4.7 mM KCl, 0.6 mM KH2PO4, 0.6 mM Na2HPO4, 1.2 mM MgSO4, 12 mM NaHCO3, 10 mM KHCO3, 30 mM taurine, 5.5 mM glucose and 10 mM Hepes (all Sigma). This medium is not recirculated and is continually aerated with a 95% O2/5% CO2 mixture. After approximately 3 minutes the heart was perfused with a modified Krebs buffer supplemented with collagenase (Worthington) and 12.5 μM final calcium concentration. The heart was removed from the cannulae after the heart appeared blanched and soft in appearance. The atria and vessels were removed and the ventricles were gently dissected into smaller pieces with forceps. The tissue was homogenized by repeated pipette trituration and the collagenase reaction was stopped by 10% bovine calf serum (BCS), sedimentation and resuspension in perfusion buffer containing 5% BCS and 12.5 uM CaCl2). Myocytes were made calcium tolerant by stepwise addition of a CaCl2) solution to a final concentration of 1.2 mM. Cells were then washed and resuspended in Tyrode's buffer (137 mM NaCl, 3.7 mM KCl, 0.5 mM MgCl, 11 mM glucose, 4 mM Hepes, and 1.2 mM CaCl2), pH 7.4). Cells were kept for 60 min at 37° C. prior to initiating experiments and used within 5 hrs of isolation. […] Additionally, only cells whose basal contractility was between 3 and 8% were used in subsequent experiments with compounds.
# Aliquots of myocytes in Tyrode's buffer were placed in perfusion chambers (series 20 RC-27NE; Warner Instruments) complete with heating platforms. Myocytes were allowed to attach, the chambers were heated to 37° C., and the cells were perfused with 37° C. Tyrode's buffer. Myocytes were field stimulated at 1 Hz in with platinum electrodes (20% above threshold). Only cells that had clear striations and were quiescent prior to pacing were used for contractility experiments. To determine basal contractility, myocytes were imaged through a 40× objective. […] Once cell contraction was stable over time, test compounds (0.01-15 μM) were perfused into the chambers on the myocytes for 5 minutes. Contractility of the myocytes and contraction and relaxation velocities were then recorded using edge detection.
# Five or more individual myocytes were tested per compound from two or more different myocyte preparations. For each cell, twenty or more contractility transients at basal (defined as 1 min prior to compound infusion) and after compound addition (defined as 5 min after starting compound perfusion), were averaged and compared. These average transients were analyzed using the IonWizard software (IonOptix) to determine changes in diastolic length and fractional shortening. Fractional shortening was calculated as: ((resting length−length at peak contraction) divided by the resting length). The percent change in fractional shortening from baseline was calculated as: ((post-dose fractional shortening/basal fractional shortening)*100). The percent reduction in fractional shortening from baseline was calculated as: (100−percent change in fractional shortening from baseline). Maximum contraction and relaxation velocities (um/sec) was also determined. Results from individual cells are averaged and the SEM calculated.
smiles,measurement,value
"CC(C)c1nc(-c2ccc3c(c2)CC[C@H]3NC(=O)c2nnn(C)n2)no1 [Compound 142, (R)—N-(5-(5-isopropyl-1,2,4-oxadiazol-3-yl)-2,3-dihydro-1H-inden-1-yl)-2-methyl-2H-tetrazole-5-carboxamide]",inhibition at 5 µM,67.8%

# From patent US12065436B2, “Cardiac sarcomere inhibitors” (Cytokinetics, Inc., priority 2018, dated 2024)
